Assay results published in ChEMBL document CHEMBL4610086, “N-Acylethanolamine Acid Amidase (NAAA): Structure, Function, and Inhibition” (J Med Chem, 2020).
Blank lines part the entries; values can stand above or below the molecule they belong to.

What was measured:
[1] = target: T1, N-acylethanolamine-hydrolyzing acid amidase (Homo sapiens, UniProt Q02083); experiment: Inhibition of NAAA (unknown origin)
T1 sequence (Q02083 whole entry): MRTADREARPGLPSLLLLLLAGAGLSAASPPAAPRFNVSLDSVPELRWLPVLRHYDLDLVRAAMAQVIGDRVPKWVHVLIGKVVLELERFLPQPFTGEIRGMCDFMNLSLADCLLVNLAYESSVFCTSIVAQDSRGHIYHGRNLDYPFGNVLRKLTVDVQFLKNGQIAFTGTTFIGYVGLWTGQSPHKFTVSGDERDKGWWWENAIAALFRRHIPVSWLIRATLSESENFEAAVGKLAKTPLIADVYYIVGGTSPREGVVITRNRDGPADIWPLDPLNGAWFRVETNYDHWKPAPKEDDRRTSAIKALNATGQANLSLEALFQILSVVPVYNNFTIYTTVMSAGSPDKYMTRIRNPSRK

[2] = Blood brain barrier permeability in human; type: ADME; conditions: read-out: BPR
[3] = target: T1, N-acylethanolamine-hydrolyzing acid amidase; experiment: Inhibition of human NAAA expressed in HEK293 cell membranes using [3H]-N-palmitoylethanolamine as substrate after 30 mins by liquid scintillation counting assay
[4] = target: T1, N-acylethanolamine-hydrolyzing acid amidase; experiment: Inhibition of human NAAA

- IC50 [1]: 3.1 µM
SMILES: O=C(CCc1ccc(-c2ccccc2)cc1)N1CCCC1

- Kp [2]: 0.2
SMILES: CCS(=O)(=O)c1ccccc1C(=O)N1CCN(c2nc3ccc(F)cc3s2)C[C@@H]1C

- IC50 [3]: > 30 µM
SMILES: CCCCCCCCCCCCCCCC(=O)OC1CCCC1 [CYCLOPENTYL PALMITATE]

SMILES: CCCCc1ccc(O[C@@H]2C[C@H]3CC[C@@H](C2)N3CS(=O)(=O)c2c(C)n[nH]c2C)cc1
- IC50 [4]: 0.023 µM
